For 100 compounds, cytotoxicity results are on record in ChEMBL document CHEMBL3507680, “University of Dundee, Gates Library screen for HepG2 cell viability”.

SMILES strings stand for the structures.

This data set can be described thus: Human HepG2 cell viability assay in 384 well format. The data set is classed as toxicity, cell-based. The arrangement: dose 125 nL, time 70.5 hour; concentration not given beside the values. Particulars: HepG2 cells, read-out: Inhibition.
On to `COc1cc(OC)nc(N2CCC3(CC2)OCCCC3O)n1` (stereo not given), for which the cytotoxicity at 70.5 h is -5.5%. As for `CC(=O)N1CCCC2(C1)CN(c1ncc(C)cn1)CCO2` (stereo not given), the cytotoxicity at 70.5 h was -17.1%. For `N#Cc1ccc(S(=O)(=O)NC(=O)c2csc(-c3ccco3)n2)cc1`, the cytotoxicity at 70.5 h is -2.89%. As for `COc1ccc(CC(=O)N2CCCCC2Cn2cccn2)cc1OC` (stereo not given), the figure is -2.2%; as for `Cc1oc(C)c(C(=O)NCc2ccccn2)c1C`, -6.3%; as for `CCN(CCc1nccs1)C(=O)c1ncoc1C`, -13.2%. The figure for `CCCNC(=O)C1CCN(CC(O)c2ccccc2C(F)(F)F)CC1` (stereo not given) is 0.668%; for `COCCN(Cc1cnn(C)c1)C(=O)C1CCN(C2CCCCC2)CC1` it is -10.8%. Turning to `Cn1cnnc1CN1CCC2(CCCN(C3CCCC3)C2=O)C1` (stereo not given), the cytotoxicity at 70.5 h came to 1.29%. Take `CC(=O)N1CCC(C(=O)N2CCOC(CC3CCCCC3)C2)CC1` (stereo not given): the cytotoxicity at 70.5 h was determined as 24.3%. The figure for `Cc1ccc(-n2cc(CN3CCOCC(CN(C)C)C3)cn2)cc1C` (stereo not given) is 37.2%; for `CC(C)CC(=O)NCc1cccc(OCCN(C)C2CCOCC2)c1` it is -4.5%.

Turning to `Cc1nc(CN2C(=O)CC[C@H]3[C@@H]2CCN3C(=O)c2ccsc2)cs1`, the cytotoxicity at 70.5 h was -11.6%. The figure for `NCCC(Cc1ccccc1)c1ccco1` (stereo not given) is 35%. As for `CCNc1ncc(CN2C[C@H]3CC[C@@H]2CN(C(=O)C2CCC2)C3)cn1`, the figure is -7.7%; as for `CC(NC(=O)NCc1ccccn1)c1cccs1` (stereo not given), -13.9%.

As to `CNC(=O)c1nc(CC(=O)Nc2ccc3cc[nH]c3c2)no1`, the cytotoxicity at 70.5 h is -13.1%.

Regarding `CC(=O)N1CCO[C@@H]2CN(S(=O)(=O)C3CC3)C[C@@H]2C1`, the cytotoxicity at 70.5 h is -0.958%. The figure for `COCCN1C(=O)CCC12CCN(C(=O)NC(C)C)CC2` is -25.3%; for `Cc1nc(C2CCCN2C(=O)COc2ccccc2)ncc1C(N)=O` (stereo not given) it is -4.1%; for `CCN1Cc2cc(OC)ccc2N(CC(C)(C)O)CCC1=O` it is -13%.

For the compound `c1cnn(CC2CN(c3ncnc4sccc34)CCO2)c1` (stereo not given), the cytotoxicity at 70.5 h is -4.77%. As for `CCc1ncnc(N2CCOCC2C2CC2)c1F` (stereo not given), the figure is -15.6%; as for `COc1ccc(C(=O)C2CCCN(Cc3ccncc3)C2)cc1OC` (stereo not given), -3.65%; as for `COCCN1CCC(CNc2cnc3ccccc3n2)CC1`, -1.83%.

Consider `CN(C)CCn1ccnc1C1CCN(C(=O)CCc2ccncc2)CC1`, for which the cytotoxicity at 70.5 h was -5.61%.

Take `CC(C)Oc1ccc(C(=O)N2CCCC2c2cnn(C)c2)cn1` (stereo not given): the cytotoxicity at 70.5 h is -3%. As for `Cc1ccc(C(=O)N2CCO[C@H]3[C@H](OCC4CCOCC4)CC[C@@H]32)o1`, the figure is 11.2%; as for `COCCN1CCC2(COCc3cnc(-c4ccccc4)nc32)C1` (stereo not given), -8.87%; as for `CCc1nc(Cn2c(=O)n(C)c3ccccc32)no1`, -6.86%.

Turning to `CCn1cc(NC(=O)NCC(C)O)cn1` (stereo not given), the cytotoxicity at 70.5 h was -1.8%. The figure for `O=C1OCCN1CC(=O)N1C[C@H]2CC[C@@H]1CN(C(=O)c1ccccc1)C2` is 2.12%. With `COCC(=O)N1CCc2ccccc2C12CCNCC2`, the cytotoxicity at 70.5 h is 18.5%. As for `CCc1nnc2n1CCN(C(=O)c1cc3c(F)cccc3[nH]1)C2`, the figure is -6.74%; as for `CCCC(NC(=O)c1ccccc1Br)c1nnn[nH]1` (stereo not given), -3.33%; as for `Cc1ccc(N2CCCC(N3CCC4(CC3)OCCO4)C2=O)cc1` (stereo not given), -7.88%. With `CN(Cc1ccc(N(C)C)cc1)C(=O)CSc1ccc(Br)cc1`, the cytotoxicity at 70.5 h is -9.49%.

As for `CO[C@H]1CCN(S(=O)(=O)c2cn(C)cn2)[C@H]1Cc1cccnc1`, the cytotoxicity at 70.5 h is -22.4%. The figure for `Cc1nc(N2CCOCC2)nc2c1COCC21CCN(CC2CC2)C1` (stereo not given) is 8.58%; for `CCCn1c(C)c(CC(=O)NC(C)CO)c2c1CC(C)(C)CC2=O` (stereo not given) it is 9.89%; for `CN1CCC(O)(CNCc2ccc(F)c(C(F)(F)F)c2)CC1` it is 22.4%. The figure for `Cc1nc(C)n(C2CCCN(C(=O)CCn3ccnn3)C2)n1` (stereo not given) is 0.306%.

`c1ccc(Cn2ccnc2CNC2CCCOc3ccccc32)cc1` (stereo not given): the cytotoxicity at 70.5 h is -6.62%. As for `COCCCC1(CO)CCCN(CCS(C)(=O)=O)C1` (stereo not given), the figure is -6%; as for `c1ccc(-c2noc(C3CCN(CCCn4cncn4)CC3)n2)cc1`, 0.0875%. In the case of `NC(=O)N1CCCC(C(=O)NCc2noc(Cc3ccccc3)n2)C1` (stereo not given), the cytotoxicity at 70.5 h was -12.7%. The figure for `Cc1ccc(NCc2ncc(C(C)(C)C)o2)c(Cl)c1` is 1.61%. As for `COCC(=O)N1CCOCC2(CCN(Cc3cccs3)C2)C1` (stereo not given), the figure is -10.6%; as for `CN(Cc1cccc(C(N)=O)c1)CC1CCCN1c1cccnn1` (stereo not given), -10.2%.

Consider `CCCn1ncc(CN(Cc2cccnc2)Cc2ccsc2)c1C`, for which the cytotoxicity at 70.5 h turned out to be 16.8%. On to `O=C1CCNc2ncc(-c3ccccc3Cl)cc2CN1C1CC1`, for which the cytotoxicity at 70.5 h stood at 0.196%. The figure for `CC(C)N1CCN(C)CC1c1nnc2ccc(C(=O)N3CCCC3)cn12` (stereo not given) is -11.5%; for `Cc1cnc2n(c1=O)C(CC(=O)NCc1ccc(Cl)cc1)CS2` (stereo not given) it is -5.3%; for `COc1cccc(CNC(=O)CN2CCCCC2Cn2cccn2)c1` (stereo not given) it is -7.75%. As for `CCC1CCCCN1Cc1nc2c(cnn2C)c(=O)[nH]1` (stereo not given), the figure is -0.935%; as for `CCOCC1CN(C(=O)[C@H]2CCCO2)Cc2nnn(CC3CC3)c21` (stereo not given in full), -1.02%. The figure for `COc1cccc(C(=O)NCC(O)c2cccs2)c1` (stereo not given) is -0.864%. As to `CC(C)N1CCCC(CNC(=O)c2ccnc(-n3ccnc3)c2)C1` (stereo not given), the cytotoxicity at 70.5 h was -4.35%. For `Cn1c(C(F)(F)F)nn(CCNC(=O)Nc2ccccc2Cl)c1=O`, the cytotoxicity at 70.5 h came to 25.1%. As for `Cc1ccc2cnn(CCC(=O)Nc3c(C)nn(C)c3C)c2c1`, the cytotoxicity at 70.5 h is -6.3%. As for `CC(C)N1CCOCC2(CCN(c3cnccn3)CC2)C1`, the figure is -11.1%.

As for `Cn1cccc1C(=O)N1CCC2(CCCN2Cc2ccccc2)CC1`, the cytotoxicity at 70.5 h was -9.97%. On to `O=C(c1ccnnc1)N1CC[C@@H](O)[C@@H]1Cc1ccccc1`, for which the cytotoxicity at 70.5 h was -9.3%. The figure for `Cc1nnc(NCC2(c3ccccc3)CCOCC2)c(C#N)c1C` is 16.6%; for `c1ccc(-n2ccc(CN3CCCCC3Cn3cncn3)n2)cc1` (stereo not given) it is -12.9%; for `O=C(Cn1nc2c(cc1=O)CCCC2)N[C@@H](C(=O)O)c1ccccc1` it is -3.48%. In the case of `Cc1cc(C)c2[nH]c(C(=O)NCCN3CCOC3=O)c(C)c2c1`, the cytotoxicity at 70.5 h came out at 1.29%. Consider `CSCCc1nc(-c2ccc3c(c2)OCO3)n(C)n1`, for which the cytotoxicity at 70.5 h is -4.21%.

In the case of `Cn1cc(Cl)c(C(=O)N2CCC(N3CCc4ccccc4C3)CC2)n1`, the cytotoxicity at 70.5 h is -6.46%. As for `Cc1nnc(NCCc2nc3ccc(F)cc3n2C)c(C#N)c1C`, the cytotoxicity at 70.5 h came to 1.4%. Turning to `CN(CC(=O)NCc1cc2ccccc2o1)S(C)(=O)=O`, the cytotoxicity at 70.5 h is -0.935%. As for `Cc1ccsc1[C@@H]1CCN(C(=O)CCCn2cncn2)C[C@H]1O`, the figure is -7.81%. As to `CCC(=O)N1CCCCC[C@@H]2[C@@H]1[C@H](c1cccc(F)c1)CN2C`, the cytotoxicity at 70.5 h stood at 16.4%.

Take `Cc1ccc(-n2cc(C)cn2)c(NC(=O)NC2(C)CCOC2)c1` (stereo not given): the cytotoxicity at 70.5 h is -2.69%. The figure for `CN(CC(=O)NC(C)(C#N)C1CC1)Cc1nnc(C2CC2)n1C` (stereo not given) is 1.7%. Consider `CN(C)CCOCC1CN(C(=O)c2cccnc2)Cc2ccnn2C1` (stereo not given), for which the cytotoxicity at 70.5 h was -6.34%. The figure for `Cc1nn(C)c(C)c1C1CCCN1C(=O)c1ccc2nnc(C)n2c1` (stereo not given) is -2.36%. The figure for `Cc1cc(C)c(S(=O)(=O)Nc2c(C)nc(N(C)C)nc2C)cc1C` is 7.13%; for `CC(C)NC(=O)CN(C1CC1)C(C)C1CC1` (stereo not given) it is -3.55%. The figure for `Cc1ccc(C(=O)N2CCCN(Cc3cscn3)CC2)o1` is -6.95%. On to `CN(Cc1ccco1)C[C@H]1OC[C@@H]2CCN(Cc3nccs3)C[C@@H]21`, for which the cytotoxicity at 70.5 h is -10.1%. The figure for `CNC(=O)C1(C)CCCN(c2cnccn2)C1` (stereo not given) is -8.04%; for `CCOc1ncccc1NC(=O)c1ccc(C(C)=O)s1` it is -14.4%. As for `COc1ccccc1CN1C(=O)O[C@@H]2CN(CC3CC3)C[C@@H]21`, the figure is -0.52%; as for `CCN(CC)S(=O)(=O)c1cc2c3c(c1)c(C)cc(=O)n3CCC2`, 36%.

`COc1cccc(COCC(=O)NC2CCN(CC(N)=O)CC2)c1`: the cytotoxicity at 70.5 h is -5.13%.

For `Cc1cc(CN(C2CC2)C(C)C(C)C)on1` (stereo not given), the cytotoxicity at 70.5 h stood at 1.68%. The figure for `COCCn1ccnc1CN(Cc1ccccn1)CC(C)C` is -6.56%. In the case of `CN(C(=O)CCC(F)(F)F)c1cccc2ncccc12`, the cytotoxicity at 70.5 h is 42.6%. The figure for `COc1ccc(C(C)N(C)Cc2c(C3CC3)[nH]c3ncccc23)cc1` (stereo not given) is -3.9%; for `CCc1cnc2c(c1Nc1ccncc1)c(=O)n(C)c(=O)n2C` it is 20.3%. For `COc1ccc(CC2CN(Cc3cncn3C)CCO2)cc1` (stereo not given), the cytotoxicity at 70.5 h was -9.57%. The figure for `O=C(c1cc2c(s1)CCOC2)N1CCCCC1Cn1cccn1` (stereo not given) is -7.81%; for `COCCCNC(=O)c1c(-n2cnnn2)sc2c1CCC2` it is -3.39%. As for `CC(=O)c1cccc(-n2nc(C(C)=O)c(C(C)=O)c2C)c1`, the figure is -2.25%. As for `CCS(=O)(=O)NCCCNC(=O)N(C)C(C)c1ccccn1` (stereo not given), the figure is -5.57%. As for `CCS(=O)(=O)N1CCc2nc(N3CCOCC3)nc(N(C)C)c2CC1`, the cytotoxicity at 70.5 h was -7.6%.

For `Cn1ccc(C(=O)N2CCCC2c2cc(CCO)[nH]n2)n1` (stereo not given), the cytotoxicity at 70.5 h was -1.26%. As for `CCC1COCCN1C(=O)CNC(=O)c1ccc2c(c1)CCC2` (stereo not given), the figure is 37.1%; as for `COc1ccc(OC)c(-n2nnnc2SCC2CCCCO2)c1` (stereo not given), -6.66%.
